Values after ≈ are worked out from the molar mass of the structure shown. Peptide text beside a SMILES is read from it.
What was measured:
in vitro [1] = format: cell-based, human; conditions: human
Protocol: (§1) The haemolytic activity of the 24 structurally related peptides (Table 1) was evaluated in erythrocytes from four different species (human, canine, bovine and rat) employing standard methodology. The subsequent release of haemoglobin was used to assess haemolytic activity as function of peptide and peptidomimetic concentration, with concentrations ranging from 0.15 to 150 µM (Presented in whole in Supplementary information Table S1–S4).
(§2) Human and rat (Sprague–Dawley) blood samples were purchased by Bioreclamation IVT (Westbury, NY, USA), collected in tubes containing heparin as anticoagulant and stored at 4 °C before use. Dog and bovine whole blood was collected from in-house animals at Zoetis Animal Health, Kalamazoo, Michigan and stored at 4 °C in tubes containing heparin as anticoagulant. 10 mL of each whole blood sample were centrifuged at 1,500 × g for 5 min and the resulting plasma fraction was removed from the samples. The pellets were washed with an equal volume (10 mL) of saline, mixing by inversion. The centrifuging and washing steps were repeated 5 times. After the last washing step, a volume of PBS was added, and the resulting samples were diluted 1:10 with PBS to yield an RBC concentration of ~ 5 × 10^8 RBC/mL. The assay was performed in a 384-well polypropylene microplate (Greiner 784201, Greiner Bio-One International, GMBH) through a Bravo Liquid Handling Platform 384 system (Agilent Technologies, Santa Clara, CA, USA) according to the previously published procedures. The compounds were tested in serial 1:1 dilutions in PBS, with final concentrations ranging from 150 to 1.2 µM. Melittin was used as reference lytic peptide. 1% TritonX100 and PBS were used as positive and negative (diluent) controls, respectively. The final concentrations were obtained by adding to the wells 7 µL of each solution, melittin or PBS, followed by 63 µL of RBCs to each well. The plate was sealed, shaken on a plate shaker for 20 s, incubated for one hour at 37 °C. Finally, it was centrifuged at 1,500 × g for 5 min at room temperature. 60 µL of supernatants were removed from all plate wells via a Bravo 384 robot and transferred to a flat-bottomed 384-well plate (Greiner UV-Star #7810801, Greiner Bio-One International, GMBH). The plate was centrifuged at 1,000 g for 1 min to remove air bubbles and optical density was measured at 405 nm using a plate reader. Percentage of haemolysis was calculated with the following equation: %haemolysis=(absorbance of test sample)-absorbance of diluent/absorbance of positive control-absorbance of diluent×100.

human erythrocytes [2] = test: in vitro; format: cell-based; conditions: for IC10 haemolysis: human erythrocytes; for IC50: red cells of human
Protocol: as §1, §2

in vitro [3] = format: cell-based, dog; conditions: dog
Protocol: as §1, §2

canine erythrocytes = test: in vitro; format: cell-based, dog; conditions: for IC10 haemolysis: canine erythrocytes; for IC50: red cells of canine
Protocol: as §1, §2

in vitro [4] = format: cell-based, rat (Sprague–Dawley); conditions: Sprague-Dawley, rat
Protocol: as §1, §2

rat erythrocytes = test: in vitro; format: cell-based, rat (Sprague–Dawley); conditions: for IC10 haemolysis: rat erythrocytes; for IC50: red cells of rat
Protocol: as §1, §2

in vitro [5] = format: cell-based, bovine; conditions: bovine
Protocol: as §1, §2

bovine erythrocytes = test: in vitro; format: cell-based; conditions: bovine erythrocytes
Protocol: as §1, §2

HaCaT cells = format: cell-based, human; conditions: 1 h
Protocol: (§3) An immortalised human keratinocyte (HaCaT) cell line (Gift from David Gram Naym at Bispebjerg Hospital, Denmark), a human liver cancer cell line (HepG2; ATCC HB-8065) and a human epithelial cervical cancer cell line (HeLa; ATCC CCL-2) were cultured to ∼90% confluence after 21–25 h of growth under standard conditions (5% CO2 at 37 °C). Cells were cultured in Dulbecco’s Modified Eagle’s Medium supplemented with 10% (v/v) fetal bovine serum (FBS). All culture media were supplemented with penicillin (100 IU/mL) and streptomycin (100 μg/mL). All cell media and supplements were obtained from Sigma-Aldrich (St. Louis, MO, United States). The 96-well plates were supplied by Corning Costar (Sigma-Aldrich, Brøndby, Denmark). Cell viability assessment was performed on cell monolayers grown to ∼90% confluence in 96-well plates by using the MTS/PMS assay as previously described. Briefly, the adhered cells were washed with PBS solution (37 °C) (ThermoFisher Scientific, Roskilde) and exposed for 1 h at 37 °C to 100 μL of peptides dissolved in the medium also used for culturing of the cell line (at concentrations in the range 0–1,000 μg/mL). The cells were subsequently washed twice with 37 °C PBS and then 100 μL of an MTS/PMS solution in media, consisting of 240 μg/mL MTS (Promega, Madison, WI, United States) and 2.4 mg/mL PMS (Promega, Madison, WI, United States), was added to the cells, which then were incubated for 1 h at 37 °C protected from light. A plate reader (SpectraMax i3X; Molecular devices, San Jose, CA) was used to measure the absorbance at 492 nm. The relative viability was calculated by using 0.2% (w/v) sodium dodecyl sulfate (SDS) as the positive control, while cells exposed to medium without test compound were used as the negative control.

HeLa cells = format: cell-based, human; conditions: 1 h
Protocol: as §3

[6] = system: Staphylococcus pseudintermedius; conditions: cited from earlier work; for S.p. MIC: Staphylococcus pseudintermedius, Table S5, in µM
Staphylococcus aureus = system: Staphylococcus aureus; set-up: method as in PMID 30842436; conditions: cited from earlier work
Pseudomonas aeruginosa = system: Pseudomonas aeruginosa; set-up: method as in PMID 30842436; conditions: cited from earlier work
human erythrocytes [7] = conditions: cited from earlier work

Row | Compound | hemolysis at 1 h, 150 µM (in vitro [1]) | IC10 haemolysis (human erythrocytes [2]) | IC50 (human erythrocytes [2]) | hemolysis at 1 h, 150 µM (in vitro [3]) | IC10 haemolysis (canine erythrocytes) | IC50 (canine erythrocytes) | hemolysis at 1 h, 150 µM (in vitro [4]) | IC10 haemolysis (rat erythrocytes) | IC50 (rat erythrocytes) | hemolysis at 1 h, 150 µM (in vitro [5]) | IC10 haemolysis (bovine erythrocytes) | IC50 (HaCaT cells) | IC50 (HeLa cells) | S.p. MIC [6] | MIC against Staphylococcus pseudintermedius [6] | MIC against Staphylococcus aureus (Staphylococcus aureus) | MIC against Pseudomonas aeruginosa (Pseudomonas aeruginosa) | Previously reported haemolytic activity against human erythrocytes (in words) (human erythrocytes [7])
1 | CC(C)C[C@H](NC(=O)[C@H](CCCCN)NC(=O)[C@@H](N)CCCCN)C(=O)N[C@@H](CCCCN)C(=O)N[C@@H](Cc1ccc2ccccc2c1)C(=O)N[C@@H](Cc1ccccc1)C(=O)N[C@@H](Cc1ccc2ccccc2c1)C(N)=O [Compound 1, Lys-Lys-Leu-Lys-(2-Nal)Ala-Phe-(2-Nal-)Ala] (HELM PEPTIDE1{K.K.L.K.[O=C([C@H](Cc1ccc2ccccc2c1)N[*:1])[*:2]].F.[O=C([C@H](Cc1ccc2ccccc2c1)N[*:1])[*:2]].[am]}$$$$V2.0) | < 8% | > 150 µM | > 150 µM | 19.7% | 34.2 µM | > 150 µM | < 8% | > 150 µM | > 150 µM | 32.5% | 45.1 µM | 654 µM | 462 µM | 7.6 µM | 8 µg/mL (≈ 7.57 µM) | 16 µg/mL (≈ 15.1 µM) | 32 µg/mL (≈ 30.3 µM) | –
2 | CC(C)C[C@H](NC(=O)[C@H](Cc1cccc2ccccc12)NC(=O)[C@H](Cc1ccccc1)NC(=O)[C@@H](N)Cc1cccc2ccccc12)C(=O)N[C@@H](CCCCN)C(=O)N[C@@H](CCCCN)C(=O)N[C@@H](CCCCN)C(N)=O [Compound 5, (1-Nal)Ala-Phe-(1-Nal)Ala-Leu-Lys-Lys-Lys] (HELM PEPTIDE1{[N[C@@H](Cc1cccc2ccccc12)C(=O)[*:2]].F.[O=C([C@H](Cc1cccc2ccccc12)N[*:1])[*:2]].L.K.K.K.[am]}$$$$V2.0) | 36% | 35.3 µM | > 150 µM | 22.5% | 29.6 µM | > 150 µM | 10.2% | 147.7 µM | > 150 µM | < 8% | – | 524 µM | 1030 µM | 15.1 µM | 16 µg/mL (≈ 15.1 µM) | 32 µg/mL (≈ 30.3 µM) | > 64 µg/mL | –
3 | CC(C)C[C@@H](NC(=O)[C@H](CCCCN)NC(=O)[C@@H](Cc1cccc2ccccc12)NC(=O)[C@@H](Cc1ccccc1)NC(=O)[C@H](N)Cc1cccc2ccccc12)C(=O)N[C@@H](CCCCN)C(=O)N[C@@H](CCCCN)C(N)=O [Compound 8, (1-Nal)Ala-Phe-(1-Nal)Ala-Lys-Leu-Lys-Lys] (HELM PEPTIDE1{[N[C@H](Cc1cccc2ccccc12)C(=O)[*:2]].[dF].[O=C([C@@H](Cc1cccc2ccccc12)N[*:1])[*:2]].K.[dL].K.K.[am]}$$$$V2.0) | 34.3% | 57.0 µM | > 150 µM | 25.8% | 66.0 µM | > 150 µM | < 8% | > 150 µM | > 150 µM | < 8% | – | – | – | – | 16 µg/mL (≈ 15.1 µM) | 32 to 64 µg/mL | > 64 µg/mL | no haemolytic activity
